Several values for one entry are separate records, joined by “and”; a condition that tells them apart may be missing. Equal values may be shown once.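 Exposure lasted 48 hours, with cells grown in 96-well plates and compounds tested at five concentrations. GI50 marks 50% less growth. TGI is the concentration that stops growth completely.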
How the values were obtained:
Assay in all cases: inhibition of tumour cell growth, NCI panel, 48 h
CCRF-CEM leukemia = test system: CCRF-CEM leukemia
COLO 205 colon = test system: COLO 205 colon
EKVX NSCLC = test system: EKVX NSCLC
HCC-2998 colon = test system: HCC-2998 colon
IGROV1 ovarian = test system: IGROV1 ovarian
OVCAR-8 ovarian = test system: OVCAR-8 ovarian
SK-MEL-5 melanoma = test system: SK-MEL-5 melanoma
SN12C renal = test system: SN12C renal
UACC-257 melanoma = test system: UACC-257 melanoma
UO-31 renal = test system: UO-31 renal

## O=C(/C=C/c1ccc(O)cc1)c1cc(Cl)ccc1O
CCRF-CEM leukemia
  TGI: 44.8 µM
COLO 205 colon
  TGI: > 100 µM
EKVX NSCLC
  TGI: > 100 µM
HCC-2998 colon
  TGI: > 100 µM
IGROV1 ovarian
  TGI: > 100 µM
OVCAR-8 ovarian
  TGI: > 100 µM
SK-MEL-5 melanoma
  TGI: > 100 µM
SN12C renal
  TGI: > 100 µM
UACC-257 melanoma
  TGI: > 100 µM
UO-31 renal
  TGI: 70.5 µM

## Cc1ccc2nc3c(C)cc(=O)cc-3sc2c1
CCRF-CEM leukemia
  TGI: 33.1 µM
COLO 205 colon
  TGI: 72.2 µM
EKVX NSCLC
  TGI: 66.4 µM
HCC-2998 colon
  TGI: 70.9 µM
IGROV1 ovarian
  TGI: > 100 µM
OVCAR-8 ovarian
  TGI: > 100 µM
SK-MEL-5 melanoma
  TGI: 29 µM
SN12C renal
  TGI: 48.8 µM
UACC-257 melanoma
  TGI: 59.2 µM
UO-31 renal
  TGI: 83.9 µM

## COC(=O)C1(O)c2ccccc2N=C2C1CCN2C (centres undefined)
CCRF-CEM leukemia
  TGI: > 100 µM
COLO 205 colon
  TGI: > 100 µM
EKVX NSCLC
  TGI: > 100 µM
HCC-2998 colon
  TGI: > 100 µM
IGROV1 ovarian
  TGI: > 100 µM
OVCAR-8 ovarian
  TGI: > 100 µM
SK-MEL-5 melanoma
  TGI: > 100 µM
SN12C renal
  TGI: > 100 µM
UACC-257 melanoma
  TGI: > 100 µM
UO-31 renal
  TGI: > 100 µM

## COc1cccc(/C=C\c2ccnc3ccccc23)c1
CCRF-CEM leukemia
  TGI: > 10 µM
COLO 205 colon
  TGI: > 10 µM
EKVX NSCLC
  TGI: > 10 µM
HCC-2998 colon
  TGI: > 10 µM
IGROV1 ovarian
  TGI: > 10 µM
OVCAR-8 ovarian
  TGI: > 10 µM
SK-MEL-5 melanoma
  TGI: > 10 µM
SN12C renal
  TGI: > 10 µM
UACC-257 melanoma
  TGI: > 10 µM
UO-31 renal
  TGI: > 10 µM

## FC(F)(F)c1ccc(NCc2nc3ccccc3[nH]2)cc1
CCRF-CEM leukemia
  GI50: 32.5 µM
  TGI: > 100 µM
COLO 205 colon
  GI50: 19.2 µM
  TGI: 34.3 µM
EKVX NSCLC
  GI50: 26.8 µM
  TGI: > 100 µM
HCC-2998 colon
  GI50: 23.8 µM
  TGI: 73.5 µM
IGROV1 ovarian
  GI50: 39.9 µM
  TGI: > 100 µM
OVCAR-8 ovarian
  GI50: 27.5 µM
  TGI: > 100 µM
SK-MEL-5 melanoma
  GI50: 15.6 µM
  TGI: 30 µM
SN12C renal
  GI50: 29.7 µM
  TGI: > 100 µM
UACC-257 melanoma
  GI50: 23.5 µM
  TGI: 67.9 µM
UO-31 renal
  GI50: 30.4 µM
  TGI: > 100 µM

## CCCCCCCCCCCC(=O)OC(COC(N)=O)COc1ccc(Cl)cc1 (centres undefined)
CCRF-CEM leukemia
  TGI: 35.9 µM
COLO 205 colon
  TGI: 37.5 µM
EKVX NSCLC
  TGI: 92.1 µM
HCC-2998 colon
  TGI: 96.1 µM
IGROV1 ovarian
  TGI: 81.2 µM
OVCAR-8 ovarian
  TGI: 33.6 µM
SK-MEL-5 melanoma
  TGI: 32.8 µM
SN12C renal
  TGI: 70 µM
UACC-257 melanoma
  TGI: 51 µM
UO-31 renal
  TGI: > 100 µM

## O=C1CC[C@@H](NC(=O)Cc2ccccc2)C(=O)N1
CCRF-CEM leukemia
  TGI: > 100 µM
COLO 205 colon
  TGI: > 100 µM
EKVX NSCLC
  TGI: > 100 µM
HCC-2998 colon
  TGI: > 100 µM
IGROV1 ovarian
  TGI: > 100 µM
OVCAR-8 ovarian
  TGI: > 100 µM
SK-MEL-5 melanoma
  TGI: > 100 µM
SN12C renal
  TGI: > 100 µM
UACC-257 melanoma
  TGI: > 100 µM
UO-31 renal
  TGI: > 100 µM

## COc1ccc2c(c1)C(=O)c1c-2c(N2CCN(C(=O)CCNCCNCCO)CC2)nc2ccccc12
CCRF-CEM leukemia
  GI50: 5.32 µM
  TGI: 23.7 µM
COLO 205 colon
  GI50: 12.4 µM
  TGI: 29.8 µM
EKVX NSCLC
  GI50: 14.5 µM
  TGI: 30.1 µM
HCC-2998 colon
  GI50: 13.8 µM
  TGI: 30.1 µM
IGROV1 ovarian
  GI50: 12.7 µM
  TGI: 45.2 µM
OVCAR-8 ovarian
  GI50: 19.5 µM
  TGI: 48.3 µM
SK-MEL-5 melanoma
  GI50: 18 µM
  TGI: 33.8 µM
SN12C renal
  GI50: 15.9 µM
  TGI: 31.7 µM
UACC-257 melanoma
  GI50: 20.8 µM
  TGI: 42.1 µM
UO-31 renal
  GI50: 13.9 µM
  TGI: 31.4 µM

## COC1=CC2CCN3Cc4cc5c(cc4C(C1O)C23)OCC5 (centres undefined)
CCRF-CEM leukemia
  TGI: > 100 µM
COLO 205 colon
  GI50: 0.513 µM
  TGI: 1.92 µM
EKVX NSCLC
  GI50: 4.66 µM
  TGI: 32.6 µM
HCC-2998 colon
  GI50: 1.09 µM
  TGI: 7.37 µM
IGROV1 ovarian
  GI50: 4.59 µM
  TGI: > 24.8 µM
OVCAR-8 ovarian
  GI50: 3.75 µM
  TGI: 37.3 µM
SK-MEL-5 melanoma
  GI50: 2.18 µM
  TGI: 8.89 µM
SN12C renal
  GI50: 1.06 µM
  TGI: 6.08 µM
UACC-257 melanoma
  GI50: 2.09 µM
  TGI: 34.6 µM
UO-31 renal
  GI50: 5.88 µM
  TGI: > 46.6 µM

## COc1cc(/C=C/c2ccccn2)cc(OC)c1OC
CCRF-CEM leukemia
  TGI: > 10 µM
COLO 205 colon
  TGI: > 10 µM
EKVX NSCLC
  TGI: > 10 µM
HCC-2998 colon
  TGI: > 10 µM
IGROV1 ovarian
  TGI: > 10 µM
OVCAR-8 ovarian
  TGI: > 10 µM
SK-MEL-5 melanoma
  TGI: > 10 µM
SN12C renal
  TGI: > 10 µM
UACC-257 melanoma
  TGI: > 10 µM
UO-31 renal
  TGI: > 10 µM

## Cc1cc(C#Cc2ccccc2)ccc1-n1c(/C=C/c2cc(O)ccc2O)nc2ccccc2c1=O
CCRF-CEM leukemia
  GI50: 1.54 µM
  TGI: 7.13 µM
COLO 205 colon
  GI50: 1.48 µM
  TGI: 2.8 µM
EKVX NSCLC
  GI50: 1.24 µM
  TGI: 5.41 µM
HCC-2998 colon
  GI50: 1.36 µM
  TGI: 2.64 µM
IGROV1 ovarian
  GI50: 2.45 µM
  TGI: 8 µM
OVCAR-8 ovarian
  GI50: 1.94 µM
  TGI: 5.4 µM
SK-MEL-5 melanoma
  GI50: 1.35 µM
  TGI: 2.64 µM
SN12C renal
  GI50: 1.62 µM
  TGI: 3.01 µM
UACC-257 melanoma
  GI50: 1.56 µM
  TGI: 2.94 µM
UO-31 renal
  GI50: 1.16 µM
  TGI: 3.1 µM

## CC/C(=N/N=C(N)N)c1ccc(NC(=O)Nc2ccc(/C(CC)=N/N=C(N)N)cc2)cc1
CCRF-CEM leukemia
  GI50: 5.8 µM
  TGI: 28.7 µM
COLO 205 colon
  GI50: 3.25 µM
  TGI: 21.2 µM
EKVX NSCLC
  GI50: 6.55 µM
  TGI: 39.6 µM
HCC-2998 colon
  GI50: 7.56 µM
  TGI: 36.3 µM
IGROV1 ovarian
  GI50: 3.15 µM
  TGI: 14.8 µM
OVCAR-8 ovarian
  GI50: 5.95 µM
  TGI: > 100 µM
SK-MEL-5 melanoma
  GI50: 2.07 µM
  TGI: > 100 µM
SN12C renal
  GI50: 3.16 µM
  TGI: 19.4 µM
UACC-257 melanoma
  GI50: 13.8 µM
  TGI: 42 µM
UO-31 renal
  GI50: 12.4 µM
  TGI: 27.2 µM

## Nc1ccc(C(=O)Nc2ccccc2N)cc1
CCRF-CEM leukemia
  TGI: > 82 µM
COLO 205 colon
  TGI: 45.2 µM
EKVX NSCLC
  TGI: > 100 µM
HCC-2998 colon
  TGI: > 100 µM
IGROV1 ovarian
  TGI: > 100 µM
OVCAR-8 ovarian
  TGI: > 100 µM
SK-MEL-5 melanoma
  TGI: 43.4 µM
SN12C renal
  TGI: > 100 µM
UACC-257 melanoma
  TGI: > 72.5 µM
UO-31 renal
  TGI: > 100 µM

## CCCCC(C(=O)CCC(=O)Nc1ccc(Cl)cc1)C(=O)C(C)C (centres undefined)
CCRF-CEM leukemia
  TGI: > 100 µM
COLO 205 colon
  TGI: > 100 µM
EKVX NSCLC
  TGI: > 100 µM
HCC-2998 colon
  TGI: > 100 µM
IGROV1 ovarian
  TGI: > 100 µM
OVCAR-8 ovarian
  TGI: > 100 µM
SK-MEL-5 melanoma
  TGI: > 100 µM
SN12C renal
  TGI: > 100 µM
UACC-257 melanoma
  TGI: > 100 µM
UO-31 renal
  TGI: > 100 µM

## COC(=O)c1ccc2c(C(=Nc3ccc(N(C)C(=O)CN4CCN(C)CC4)cc3)c3ccccc3)c(O)[nH]c2c1
CCRF-CEM leukemia
  GI50: 2.56 µM and 2.81 µM
  TGI: 16.7 µM and > 100 µM
COLO 205 colon
  GI50: 4.32 µM and 4.41 µM
  TGI: 46.4 µM
EKVX NSCLC
  GI50: 10.6 µM and 49.6 µM
  TGI: > 100 µM
HCC-2998 colon
  GI50: 11.2 µM and 7.26 µM
  TGI: 30.7 µM and 73.8 µM
IGROV1 ovarian
  GI50: 0.839 µM and 0.967 µM
  TGI: 22.5 µM and > 100 µM
OVCAR-8 ovarian
  GI50: 2.31 µM and 2.43 µM
  TGI: 27.6 µM and > 100 µM
SK-MEL-5 melanoma
  GI50: 3.94 µM and 2.32 µM
  TGI: 9.86 µM and 6.51 µM
SN12C renal
  GI50: 1.23 µM and 0.959 µM
  TGI: 31.9 µM and > 87.6 µM
UACC-257 melanoma
  GI50: 1.83 µM and 1.54 µM
  TGI: 4.48 µM and 3.1 µM
UO-31 renal
  GI50: 1.2 µM and 0.739 µM
  TGI: 5.76 µM and > 34 µM

## CN1CCN(c2ccc(Nc3ncc4cc5n(c4n3)C3(CCCCC3)CNC5=O)nc2)CC1
CCRF-CEM leukemia
  GI50: 0.203 µM
  TGI: 3.6 µM
COLO 205 colon
  GI50: 0.0632 µM
  TGI: 11.3 µM
EKVX NSCLC
  GI50: 2.14 µM
  TGI: 14.1 µM
HCC-2998 colon
  GI50: 6.14 µM
  TGI: 30.4 µM
IGROV1 ovarian
  GI50: 2.42 µM
  TGI: 16.4 µM
OVCAR-8 ovarian
  GI50: 4.11 µM
  TGI: 86.1 µM
SK-MEL-5 melanoma
  GI50: 3.2 µM
  TGI: 15.6 µM
SN12C renal
  GI50: 1.5 µM
  TGI: 12.2 µM
UACC-257 melanoma
  GI50: 5.67 µM
  TGI: 39.2 µM
UO-31 renal
  GI50: 0.67 µM
  TGI: 12.9 µM

Reference: PubChem BioAssay (NCI)
